Laboratory results published in patent publication US20240350458A1, “14-3-3 PROTEIN MODULATORS AS ANTITUMOR AGENTS” (priority 2021, published 2024).
“Also recorded” adds a separate entry of the source.

Assays:
A2058 = assay: Antiproliferative activity, melanoma cell line; type: cell-based; conditions: Homo sapiens; melanoma A2058 (BRAFV600E); read-out: IC50 (95% confidence interval)
Experimental: (§1) The antiproliferative activity was assessed by MTT proliferation assay (Table III) The anticancer activity was also investigated in a rare and lethal cancer (i.e. anaplastic thyroid cancer) by the use of three ATC-derived cell lines (Sw, FRO, 8505c). Again, the IC50 value after 72 h exposure was in the range of 10 to 50 nM. The same trend was also observed in four melanoma cell lines A2058, M14 (genotype BRAFV600E), SKMEL 197 e MEWO (genotype BRAF wild-type).

M14 = assay: Antiproliferative activity, melanoma cell line; type: cell-based; conditions: Homo sapiens; melanoma M14 (BRAFV600E); read-out: IC50 (95% confidence interval)
Experimental: as §1

MEWO = assay: Antiproliferative activity, melanoma cell line; type: cell-based; conditions: Homo sapiens; melanoma MEWO (BRAF wild-type); read-out: IC50 (95% confidence interval)
Experimental: as §1

SKMEL 197 = assay: Antiproliferative activity, melanoma cell line; type: cell-based; conditions: melanoma SKMEL 197 (BRAF wild-type); read-out: IC50 (95% confidence interval)
Experimental: as §1

HCT-116 = assay: MTT proliferation assay, colon cancer; type: cell-based; conditions: Homo sapiens
Experimental: as §1
Table III IC50 expressed in μM and Emax (at 30 μM) for FC86 after 72 h exposure, were calculated by MTT assay

TMD8 = assay: MTT proliferation assay, B-cell lymphoma cell line; type: cell-based; conditions: Homo sapiens; TMD8, 72 h of drug incubation
Experimental: All the above compounds were tested in vitro for their anticancer activity against a panel of eight B-cell lymphoma cell lines by MTT proliferation assay. The tested cell lines belonging to mantle cell lymphoma (MCL: REC1, Z138), activated B-cell diffuse large B-cell lymphoma (ABC-DLBCL: R11, HBL1, U2932, TMD8), germinal center B-cell diffuse large B-cell lymphoma (GCB-DLBCL: SU-DHL-10, FARAGE) subtypes. In overall, MCL cell lines present Cyclin D1 overexpression, while ABC- and GCB-DLBCL's proliferation is BCR and BCL6/HDACs driven, respectively. At the RNA level, all tested lymphoma cell lines were characterized by an overexpression of 14-3-3 zeta as reported for B-cell lymphomas resistant to chemotherapeutic regimen.

14-3-3 = assay: DARTS in U87MG cells; type: binding; conditions: 5 μM, 2 h, MS and western blot
Experimental: FIG. 5 represents DARTS experiments results as reported in example 6: Proteins obtained from U87MG cells incubated with 5 μM of FC86 or with the medium for 2 h underwent subtilisin-catalyzed digestion.
Current protocols in chemical biology 2011, 3:163-180]. […] The same DARTS experiments were also performed by incubating glioblastoma cell lines (U87MG) with subtoxic amounts of FC86 and data collected confirmed the 14-3-3 as target protein. (FIG. 5).
The identification of putative targets of FC86 was achieved by Drug Affinity Responsive Target Stability (DARTS) experiments. Cancer cells were incubated with a sub-toxic concentration (50 nM for U937 and 5 μM for U87MG) of FC86 for 2 h or with the medium (control cells). After the treatments, treated and control cells were collected and whole protein extracts were prepared by lysing cells in 20 mM Tris-HCl (pH 7.5), 150 mM NaCl, 1 mM EDTA, 1 mM EGTA, 1% NP-40, 1% sodium deoxycholate, 2.5 mM sodium pyrophosphate, 1 mM β-glycerophosphate, 1 mM Na3VO4, 1 μg/ml leupeptin. Protein concentration was determined by the Bradford protein assay using bovine serum albumin as standard. […] Parameters sets were: trypsin cleavage; carbamidomethylation of cysteine as a fixed modification and methionine oxidation as a variable modification; a maximum of two missed cleavages; false discovery rate (FDR), calculated by searching the decoy database, 0.05. […]

[1] = system: peripheral blood mononuclear cells (PBMC); assay: Annexin V apoptosis in PBMC from healthy donors (FACS); type: cell-based; conditions: 200 nM, 48 h
Experimental: FC86 was incubated with cells at the concentration of 200 nM for 48 h. Annexin V was detected by flow cytometry (FACS). PBMCs (Peripheral blood mononuclear cells) were not affected by FC86.

Cc1ccc(S(=O)(=O)Nc2ccc3c(c2)/C(=C/c2cccs2)C(=O)N3)cc1 [FC86, N-[(3Z)-2-oxo-3-(thiophene-2-ylmethylidene)-2,3-dihydro-1H-indol-5-yl]-4-methylbenzenesulfonamide]
IC50 (A2058): 28.6 nM | IC50 (M14): 14.1 nM | IC50 (MEWO): 57 nM | IC50 (SKMEL 197): 20.7 nM | Emax at 30 µM (HCT-116; Colon HCT-116, 30 μM, 72 h): 62% | IC50 (HCT-116; Colon HCT-116, 72 h exposure): 1600 nM | IC50 (TMD8): 20 nM | resistance of 14-3-3 to subtilisin proteolysis (DARTS) (14-3-3): significant increment of resistance to proteolysis | apoptosis (Annexin V) in PBMC [1]: did not detect any sign of apoptosis; also recorded: not affected
